Laboratory results taken from BindingDB's records for patent WO2025051920 (Sanofi-Aventis Deutschland, 2025).

Target: T1, Interleukin-23 subunit alpha/receptor (UniProt Q9NPF7+Q5VWK5)
T1 sequence (Q9NPF7 whole entry): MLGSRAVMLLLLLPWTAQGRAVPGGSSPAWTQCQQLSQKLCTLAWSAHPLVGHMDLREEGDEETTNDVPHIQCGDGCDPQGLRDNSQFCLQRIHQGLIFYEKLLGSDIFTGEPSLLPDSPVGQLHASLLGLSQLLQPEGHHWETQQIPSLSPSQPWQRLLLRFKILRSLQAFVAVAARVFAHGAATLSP
T1 sequence (Q5VWK5 whole entry): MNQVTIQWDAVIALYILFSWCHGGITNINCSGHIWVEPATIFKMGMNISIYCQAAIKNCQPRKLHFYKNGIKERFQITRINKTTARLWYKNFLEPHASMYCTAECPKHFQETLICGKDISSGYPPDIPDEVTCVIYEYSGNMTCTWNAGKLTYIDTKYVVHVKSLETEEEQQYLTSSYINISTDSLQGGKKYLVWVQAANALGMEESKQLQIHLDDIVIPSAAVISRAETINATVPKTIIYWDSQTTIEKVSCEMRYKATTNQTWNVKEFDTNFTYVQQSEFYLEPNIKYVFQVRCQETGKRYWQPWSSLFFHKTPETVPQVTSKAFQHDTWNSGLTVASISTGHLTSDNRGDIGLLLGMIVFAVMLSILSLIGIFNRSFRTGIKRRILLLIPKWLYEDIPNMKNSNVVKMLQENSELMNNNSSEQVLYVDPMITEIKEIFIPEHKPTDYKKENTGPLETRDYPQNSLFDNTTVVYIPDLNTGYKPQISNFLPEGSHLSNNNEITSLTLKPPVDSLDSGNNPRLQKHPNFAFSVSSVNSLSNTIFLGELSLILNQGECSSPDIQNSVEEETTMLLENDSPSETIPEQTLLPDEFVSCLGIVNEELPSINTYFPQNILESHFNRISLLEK
Assay: ELISA assay for specific human IL-23R inhibitors
In short: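 Plates coated overnight at 4 °C with human IL-23 ([…] final) and blocked. Serially diluted peptides added with recombinant human IL-23R-Fc ([…] final), 60 min at room temperature. Bound IL-23R-Fc detected with anti-human IgG1-HRP and fluorogenic peroxidase substrate.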

Row | SMILES | IC50 [nM]
1 | COc1ccc(C[C@@H]2NC(=O)[C@H](CCCNC(=N)N)NC(=O)[C@H](CCC(N)=O)NC(=O)[C@H](Cc3cn(C)c4ccccc34)NC(=O)[C@H]([C@@H](C)O)NC(=O)[C@H](CC(N)=O)NC(=O)[C@H](NC(C)=O)CCCCNC(=O)C[C@@H](C(=O)N[C@@H](CC(N)=O)C(=O)N[C@@H](CC(N)=O)C(=O)O)NC(=O)[C@H](CC(C)C)NC(=O)[C@H](Cc3ccc4ccccc4c3)NC2=O)cc1 [WO2025051920, Example 24] | 1.21
2 | COc1ccc(C[C@@H]2NC(=O)[C@H](CCCNC(=N)N)NC(=O)[C@H](CCC(N)=O)NC(=O)[C@H](Cc3c[nH]c4ccccc34)NC(=O)C([C@@H](C)O)NC(=O)[C@H](CC(N)=O)NC(=O)[C@H](NC(C)=O)CCCCNC(=O)C[C@H](C(=O)N[C@@H](CC(N)=O)C(=O)N[C@@H](CC(N)=O)C(=O)O)NC(=O)C(C)(C)NC(=O)[C@H](Cc3ccc4ccccc4c3)NC2=O)cc1 (some centres not stated) [WO2025051920, Example 3] | 1.55
